From ChEMBL document CHEMBL1201862, “PubChem BioAssay data set” (2004)
“And” between values parts separate entries of the source, which are not always exact repeats. Equal values may be shown once.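 Dose response: 5 concentrations. Exposure: 48 h. Format: 96-well plates. Endpoint: linear interpolation; highest concentration if not reached. GI50 marks 50% less growth.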 The source made the active and inactive calls. Rule as the data show it: active = GI50 up to about 1.1 µM and inactive = higher.

Experiments:
Assay in all cases: inhibition of tumour cell growth, NCI panel, 48 h
HL-60 = tested on: HL-60
SNB-75 = tested on: SNB-75
UO-31 = tested on: UO-31
HOP-62 = tested on: HOP-62
NCI-H522 = tested on: NCI-H522
CAKI-1 = tested on: CAKI-1
RPMI-8226 = tested on: RPMI-8226
HCT-116 = tested on: HCT-116
MOLT-4 = tested on: MOLT-4
T47D = tested on: T47D
SW-620 = tested on: SW-620
SK-MEL-28 = tested on: SK-MEL-28
HCC 2998 = tested on: HCC 2998
SK-MEL-2 = tested on: SK-MEL-2
NCI-H226 = tested on: NCI-H226
SNB-19 = tested on: SNB-19
NCI/ADR-RES = tested on: NCI/ADR-RES
NCI-H460 = tested on: NCI-H460
SR = tested on: SR

Measured: GI50

Fc1ccc(C(OCCN2CC3CCC(C2)N3CCCc2ccccc2)c2ccc(F)cc2)cc1
inactive: HL-60 3.08 µM | SNB-75 3.37 µM | UO-31 7.33 µM | HOP-62 6.03 µM | NCI-H522 2.17 µM | CAKI-1 6.22 µM | RPMI-8226 2.15 µM | HCT-116 2.93 µM | MOLT-4 2.79 µM | T47D 1.95 µM | SW-620 3.54 µM | SK-MEL-28 8.99 µM | HCC 2998 2.87 µM | SK-MEL-2 2.55 µM | NCI-H226 3.94 µM | SNB-19 10.1 µM | NCI/ADR-RES 3.89 µM | NCI-H460 3.01 µM

N=c1sc2ccccc2n1CC[S-].c1ccc2c(c1)sc1[n+]2CCS1
inactive: HL-60 22.5 µM | SNB-75 41.5 µM | UO-31 12.5 µM | HOP-62 17.3 µM | NCI-H522 18 µM | CAKI-1 16.9 µM | HCT-116 16.9 µM | MOLT-4 3 µM | T47D 23.6 µM | SW-620 17.1 µM | SK-MEL-28 18.7 µM | HCC 2998 17.1 µM | SK-MEL-2 18.2 µM | NCI-H226 16.7 µM | SNB-19 19.3 µM | NCI/ADR-RES 20.4 µM | NCI-H460 14.4 µM

Cc1nc2ccc(NC3OC(CO)C(O)C(O)C3O)cc2c(=O)n1-c1ccccc1 (stereo not given)
inactive: HL-60 > 100 µM | SNB-75 > 100 µM | UO-31 > 100 µM | HOP-62 > 100 µM | NCI-H522 > 100 µM | CAKI-1 > 100 µM | RPMI-8226 > 100 µM | HCT-116 > 100 µM | MOLT-4 > 100 µM and > 99.3 µM | T47D > 100 µM | SW-620 > 100 µM | SK-MEL-28 > 100 µM | HCC 2998 > 100 µM | SK-MEL-2 > 100 µM | NCI-H226 > 100 µM | SNB-19 > 100 µM | NCI/ADR-RES > 100 µM | NCI-H460 > 100 µM

COc1cccc(CC(C)NCC(O)c2ccc(O)c(O)c2)c1 (stereo not given)
inactive: SNB-75 19 µM | UO-31 39.3 µM | HOP-62 34.8 µM | NCI-H522 34.8 µM | SR 17.4 µM | CAKI-1 35 µM | RPMI-8226 39.2 µM | HCT-116 28.8 µM | MOLT-4 14 µM | T47D 25.3 µM | SW-620 33 µM | SK-MEL-28 52.1 µM | SK-MEL-2 > 100 µM | NCI-H226 24.8 µM | SNB-19 32.3 µM | NCI/ADR-RES > 100 µM | NCI-H460 51.6 µM

CC(C)(C)N/N=C(\C(=O)NC1=C(Cl)C(=O)c2ccccc2C1=O)C1C=CCS1(=O)=O (stereo not given)
inactive: HL-60 > 100 µM | SNB-75 11.1 µM | UO-31 16.8 µM | NCI-H522 12.5 µM | CAKI-1 18.4 µM | RPMI-8226 > 100 µM | HCT-116 15.5 µM | MOLT-4 66.7 µM | T47D 19.5 µM | SW-620 > 100 µM | SK-MEL-28 > 100 µM | HCC 2998 36.1 µM | SK-MEL-2 11.2 µM | NCI-H226 12.6 µM | SNB-19 > 100 µM | NCI/ADR-RES 22 µM | NCI-H460 6.84 µM

COc1cc(C(=O)/C=C/c2ccc(OCC#N)cc2)cc(OC)c1OC
inactive: SNB-75 > 10 µM | UO-31 17.6 µM | HOP-62 22.1 µM | NCI-H522 17.3 µM | SR 23.6 µM | CAKI-1 26.1 µM | HCT-116 13.9 µM | MOLT-4 27 µM | T47D 17.3 µM | SW-620 18.9 µM | SK-MEL-28 17.3 µM | HCC 2998 16.5 µM | NCI-H226 23.2 µM | SNB-19 20.3 µM | NCI/ADR-RES 18 µM | NCI-H460 28.8 µM

O=c1[nH]nc(-c2ccccc2)n1/N=C/c1ccccc1O
inactive: UO-31 > 100 µM | NCI-H522 42.7 µM | SR > 100 µM | CAKI-1 > 100 µM | RPMI-8226 > 100 µM | HCT-116 33.4 µM | MOLT-4 > 100 µM | T47D > 100 µM | SW-620 > 100 µM | HCC 2998 > 100 µM | SK-MEL-2 > 100 µM | NCI-H226 > 100 µM | SNB-19 35.5 µM | NCI/ADR-RES > 100 µM | NCI-H460 > 100 µM

CN(Cc1cccc2ccsc12)/N=C\c1ccc(Cl)cc1
inactive: SNB-75 57.1 µM | UO-31 78.3 µM | HOP-62 > 100 µM | NCI-H522 51.3 µM | SR 18.4 µM | CAKI-1 > 100 µM | HCT-116 28.6 µM | MOLT-4 25.5 µM | T47D 49.5 µM | SW-620 80.2 µM | SK-MEL-28 > 100 µM | HCC 2998 49.3 µM | NCI-H226 89.9 µM | SNB-19 > 100 µM | NCI/ADR-RES > 100 µM | NCI-H460 > 100 µM

COc1cc2c(cc1OC)CCc1cc(OC)c(OC)cc1CC2
inactive: SNB-75 > 100 µM | UO-31 > 100 µM | HOP-62 > 100 µM | SR > 100 µM | CAKI-1 > 100 µM | HCT-116 > 100 µM | MOLT-4 > 100 µM | T47D 31.3 µM | SW-620 > 100 µM | SK-MEL-28 > 100 µM | HCC 2998 > 100 µM | SK-MEL-2 > 100 µM | NCI-H226 > 100 µM | SNB-19 > 100 µM | NCI/ADR-RES > 100 µM | NCI-H460 > 100 µM

COc1ccc2[nH]c3c(c2c1)CCc1ccccc1-3
inactive: SNB-75 26.1 µM | UO-31 70.1 µM | HOP-62 35.2 µM | NCI-H522 26.7 µM | SR 84.9 µM | CAKI-1 > 100 µM | HCT-116 > 100 µM | MOLT-4 80.9 µM | T47D > 100 µM | SW-620 > 100 µM | SK-MEL-28 > 100 µM | HCC 2998 64.3 µM | SK-MEL-2 > 100 µM | NCI-H226 > 100 µM | SNB-19 81.3 µM | NCI/ADR-RES 40.4 µM | NCI-H460 30.8 µM

Cc1cc(OCc2nnc3n2S(=O)(=O)c2ccccc2N3C)ccc1Cl
inactive: HL-60 21 µM | UO-31 58.3 µM | HOP-62 14.1 µM | NCI-H522 6.79 µM | CAKI-1 28.8 µM | HCT-116 39.5 µM | MOLT-4 55 µM | T47D 18.5 µM | SW-620 > 100 µM | SK-MEL-28 86.5 µM | HCC 2998 > 100 µM | SK-MEL-2 > 100 µM | NCI-H226 31.2 µM | SNB-19 19.3 µM | NCI/ADR-RES 35.7 µM | NCI-H460 39.9 µM

CCOC(=O)C1(C#N)C(=O)c2cc[n+](CC[n+]3ccc4c(c3)C(=O)C(C#N)(C(=O)OCC)C4=O)cc2C1=O (stereo not given)
inactive: HL-60 83.4 µM | SNB-75 > 100 µM | UO-31 > 100 µM | NCI-H522 > 100 µM | CAKI-1 > 100 µM | RPMI-8226 > 100 µM | HCT-116 > 100 µM | MOLT-4 > 100 µM | T47D 53.3 µM | SW-620 > 100 µM | SK-MEL-28 > 100 µM | HCC 2998 > 100 µM | SK-MEL-2 36.1 µM | NCI-H226 > 100 µM | SNB-19 > 100 µM | NCI/ADR-RES > 100 µM | NCI-H460 > 100 µM
